Assay results published in patent publication US9079854B2 (priority 2007, dated 2015).
Like-named read-outs stand apart in the source and are kept apart here.

What was measured:
[1] = target: T1, human CB1 (hCB1) receptor (Homo sapiens, UniProt P21554); test: CB1 binding assay, competitive binding of [3H]CP 55940; settings: for % Inhibition of Control Specific Binding / % of Control Specific Binding 1st / % of Control Specific Binding 2nd / % of Control Specific Binding Mean: CB1, Test Concentration 1.0E−05 (MD); for % of Control Specific Binding 1st: 1st determination; for % of Control Specific Binding 2nd: 2nd determination; for inhibition at 10 µM / inhibition at 1 µM: specific binding of [3H]-CP55940; for inhibition at 1 µM: CHO membranes
T1 construct: expressed in transfected cells; host or cells: CHO (Chinese hamster ovary) cells, membranes
T1 sequence (P21554 whole entry): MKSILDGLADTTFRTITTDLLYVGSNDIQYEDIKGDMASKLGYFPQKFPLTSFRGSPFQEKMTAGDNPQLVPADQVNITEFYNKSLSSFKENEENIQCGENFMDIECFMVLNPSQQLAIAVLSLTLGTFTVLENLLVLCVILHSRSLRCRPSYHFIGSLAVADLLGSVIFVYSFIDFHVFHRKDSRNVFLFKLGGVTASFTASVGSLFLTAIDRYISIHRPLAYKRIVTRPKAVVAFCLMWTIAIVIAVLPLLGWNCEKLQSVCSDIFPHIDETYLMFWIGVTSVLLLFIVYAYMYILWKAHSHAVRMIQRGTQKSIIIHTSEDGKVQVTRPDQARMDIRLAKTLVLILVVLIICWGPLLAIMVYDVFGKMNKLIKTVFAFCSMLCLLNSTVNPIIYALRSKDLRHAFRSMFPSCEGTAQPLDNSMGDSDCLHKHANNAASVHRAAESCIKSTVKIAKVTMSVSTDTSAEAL
Protocol: Cell membrane homogenates (25 μg protein) are incubated for 120 min at 37° C. with 0.5 nM [^3H]CP 55940 (the reference standard [Rinaldi-Carmona, 1996 #1320]) in the absence or presence of the test compound in a buffer containing 50 mM Tris HCl (pH 7.4), 5 mM MgCl2, 2.5 mM EDTA, and 0.3% bovine serum albumin (BSA). […]
(§1) […] [^3H]-CP55940 at a concentration of 0.5 nM and [^3H]-WIN55212 at a concentration of 0.8 nM were used as radioligands for hCB1 and hCB2 assays, respectively. The results are expressed as a percent inhibition of control specific binding. Compounds which displaced the radioligand by more than 50% for either hCB1 or hCB2 receptors were arbitrary chosen for functional activity determination.

[2] = target: T2, human CB2 (hCB2) receptor (Homo sapiens, UniProt P34972); test: CB2 binding assay, competitive binding of [3H]WIN 55212-2; settings: for % Inhibition of Control Specific Binding / % of Control Specific Binding 1st / % of Control Specific Binding 2nd / % of Control Specific Binding Mean: CB2, Test Concentration 1.0E−05 (MD); for % of Control Specific Binding 1st: 1st determination; for % of Control Specific Binding 2nd: 2nd determination; for inhibition at 10 µM / inhibition at 1 µM: specific binding of [3H]-WIN55212-2; for inhibition at 1 µM: CHO membranes
T2 construct: expressed in transfected cells; host or cells: CHO (Chinese hamster ovary) cells, membranes
T2 sequence (P34972 whole entry): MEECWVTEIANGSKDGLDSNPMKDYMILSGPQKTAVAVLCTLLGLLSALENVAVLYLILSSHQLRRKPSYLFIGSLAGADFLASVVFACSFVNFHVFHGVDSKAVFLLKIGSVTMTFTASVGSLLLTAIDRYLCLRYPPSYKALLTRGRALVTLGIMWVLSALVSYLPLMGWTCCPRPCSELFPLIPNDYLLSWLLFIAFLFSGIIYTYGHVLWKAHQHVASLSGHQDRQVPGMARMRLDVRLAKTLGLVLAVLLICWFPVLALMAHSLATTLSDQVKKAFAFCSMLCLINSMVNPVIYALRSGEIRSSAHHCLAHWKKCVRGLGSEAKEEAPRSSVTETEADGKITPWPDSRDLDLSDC
Protocol: Cell membrane homogenates (15 μg protein) are incubated for 120 min at 37° C. with 0.8 nM [^3H]WIN 55212-2 (the reference standard [Munro, 1993 #1321]) in the absence or presence of the test compound in a buffer containing 50 mM HEPES/Tris HCL (pH 7.4), 5 mM MgCl2, 2.5 mM EGTA, and 0.1% BSA. Nonspecific binding is determined in the presence of 10 μM WIN 55212-2. After being incubated, the samples are filtered rapidly under vacuum through glass fiber filters (GF/B; Packard) presoaked with 0.3% PEI and rinsed several times with ice-cold buffer containing 50 mM Tris HCl (pH 7.4) and 0.5% BSA using a 96-sample cell harvester (Unifilter; Packard). The filters are dried then counted for radioactivity in a scintillation counter (Topcount; Packard) using a scintillation cocktail (Microscint 0; Packard). The results are expressed as a percentage of the inhibition of the control radioligand-specific binding. The reference standard compounds are tested in each experiment at several concentrations to obtain a competition curve from which its IC50 is calculated.
as §1

hCB2 receptor = target: T3, hCB2 receptor (Homo sapiens, UniProt P34972); test: CB2 functional assay, [35S]GTP-γ-S binding; format: biochemical
T3 construct: purchased ES-111-MG; host or cells: CHO membrane extracts
T3 sequence (P34972 whole entry): as above
Protocol: A dose response curve was generated at eight concentrations in duplicate on CB1 and CB2 in light of reference agonists.
Membranes (CB1, ES-110-MG or CB2, ES-111-MG) are mixed with GDP (volume:volume) and incubated for at least […] on ice. In parallel, […] are mixed with the beads (volume:volume) just before starting the reaction. The following reagents are successively added in the wells of an Optiplate: 50 μl of ligand, 20 μl of the membranes:GDP mix, 10 μl of assay buffer for agonist testing and 20 μl of the […]: beads mix. The plates are covered with a topseal, shaken on an orbital shaker for 2 min, and then incubated between 30 to 60 min at room temperature. Then the plates are centrifuged for 10 min at 2000 rpm, incubated at room temperature between 1 to 4 hours and counted for 1 min with a PerkinElmer TopCount reader.
Functional activity for acyl hydrazone was evaluated using [^35S]GTP-γ-S assay in CHO membrane extracts expressing recombinant hCB1 receptor or hCB2 receptor. The assay relies on the binding of [^35S]GTP-γ-S, a radiolabeled nonhydrolyzable GTP analogue, to the G protein upon binding of an agonist of the G-protein-coupled receptor. In this system, agonists stimulate [^35S]GTP-γ-S binding whereas neutral antagonist have no effect and inverse agonists decrease [^35S]GTP-γ-S basal binding.
CB1 and CB2 assay data are presented as the mean of two determinations. […] For replicate determinations, the maximum variability tolerated in the test was of ±20% around the average of the replicates.

[3] = at 10 μM, read-out: % inhibition hCB2 receptor
[4] = read-out: % inhibition hCB2 receptor, at 10 μM
[5] = read-out: % inhibition hCB2 receptor, at 1 μM

Compound | % of Control Specific Binding 1st [1] [%] | % of Control Specific Binding 2nd [1] [%] | % of Control Specific Binding Mean [1] [%] | inhibition at 10 µM [1] [%] | % Inhibition of Control Specific Binding [2] [%] | % of Control Specific Binding 1st [2] [%] | % of Control Specific Binding 2nd [2] [%] | % of Control Specific Binding Mean [2] [%] | inhibition at 1 µM [1] [%] | inhibition at 1 µM [2, 5] [%] | other results
O=C1/C(=N\NC(=S)Nc2ccccc2)c2ccccc2N1CCC1CCCCC1 [Example 1, Phenyl thiocarbamoyl[1-(2-cyclohexyl-ethyl)-2-oxo-1,2-dihydro-indol-3-ylidene]-hydrazide] | 68.6 | 59.6 | 64.1 | < 40 | 15 | 83.3 | 87.6 | 85.4 |  |  | % Inhibition of Control Specific Binding [1]: 36%; inhibition at 10 µM [2, 3]: < 40%
CCCCCCN1C(=O)/C(=N\NC(=S)Nc2ccccc2)c2ccccc21 [Example 2, Phenyl thiocarbamoyl[1-n-hexyl-2-oxo-1,2-dihydro-indol-3-ylidene]-hydrazide] | 45.8 | 56.1 | 51 | 49 ± 5.2 | 38 | 59.8 | 64.7 | 62.3 |  |  | inhibition at 10 µM [2, 3]: 37.7 ± 2.5%
O=C(N/N=C1\C(=O)N(CCC2CCCCC2)c2ccccc21)Nc1ccccc1 [Example 3] | 54.1 | 78.5 | 66.3 | < 40 | −3 | 98.6 | 107.1 | 102.8 |  |  | % Inhibition of Control Specific Binding [1]: 34%; inhibition at 10 µM [2, 4]: < 40%
CCCCCCN1C(=O)/C(=N\NC(=O)Nc2ccccc2)c2ccccc21 [Example 4, Phenyl carbamoyl[1-n-hexyl-2-oxo-1,2-dihydro-indol-3-ylidene]-hydrazide] | 64.3 | 61.4 | 62.9 | < 40 | −8 | 105.7 | 109.7 | 107.7 |  |  | % Inhibition of Control Specific Binding [1]: 37%; inhibition at 10 µM [2, 4]: < 40%
O=C1/C(=N\NS(=O)(=O)c2ccccc2)c2ccccc2N1CCC1CCCCC1 [Example 8] | 77.2 | 90 | 83.6 | < 40 | 9 | 89.2 | 93.3 | 91.2 |  |  | % Inhibition of Control Specific Binding [1]: 16%; inhibition at 10 µM [2, 3]: < 40%
CCCCCCN1C(=O)/C(=N\NS(=O)(=O)c2ccccc2)c2ccccc21 [Example 9, Phenyl sulfonyl[1-n-hexyl-2-oxo-1,2-dihydro-indol-3-ylidene]-hydrazide] | 87.7 | 96.1 | 91.9 | < 40 | −14 | 126.5 | 100.6 | 113.5 |  |  | % Inhibition of Control Specific Binding [1]: 8%; inhibition at 10 µM [2, 3]: < 40%
CCCCCCN1C(=O)/C(=N\NC(=O)CCCCC)c2ccccc21 [Example 12, N′-[(3Z)-1-hexyl-2-oxo-1,2-dihydro-3H-indol-3-ylidene]hexanohydrazide] |  |  |  |  |  |  |  |  | 45.2 ± 9.5 | 36.6 ± 8.8 | 
CCCCCCN1C(=O)/C(=N\NC(=O)c2ccc(Cl)cc2)c2ccccc21 [Example 13, 4-chloro-N′-[(3Z)-1-hexyl-2-oxo-1,2-dihydro-3H-indol-3-ylidene]benzohydrazide] |  |  |  |  |  |  |  |  | 46.6 ± 4.3 | 32.7 ± 5.3 | 
CCCCCCN1C(=O)/C(=N\NC(=O)c2ccc3ccccc3c2)c2ccccc21 [Example 16, N′-[(3Z)-1-hexyl-2-oxo-1,2-dihydro-3H-indol-3-ylidene]-2-naphthohydrazide] |  |  |  |  |  |  |  |  | < 30 | < 30 | 
CCCCCCN1C(=O)/C(=N\NC(=O)c2cc3ccccc3s2)c2ccccc21 [Example 18, N′-[(3Z)-1-hexyl-2-oxo-1,2-dihydro-3H-indol-3-ylidene]-1-benzothiophene-2-carbohydrazide] |  |  |  |  |  |  |  |  | < 30 | < 30 | 
CCCCCCCCCCCCN1C(=O)/C(=N\NC(=O)c2ccccc2)c2ccccc21 [Example 24, N′-[(3Z)-1-(1-dodecyl)-2-oxo-1,2-dihydro-3H-indol-3-ylidene]benzohydrazide] |  |  |  |  |  |  |  |  | 23.8 ± 4.5 | 24.3 ± 4.1 | 
O=C(N/N=C1\C(=O)N(CCN2C(=O)c3ccccc3C2=O)c2ccccc21)c1ccccc1 [Example 27, N′-{[3Z]-1-[2-(1,3-dioxo-1,3-dihydro-2H-isoindol-2-yl)ethyl]-2-oxo-1,2-dihydro-3H-indol-3-ylidene}benzohydrazide] |  |  |  |  |  |  |  |  | 3 ± 4.1 |  | inhibition at 1 µM ([2]; at 1 μM, read-out: % inhibition hCB2 receptor): 3 ± 3.2%
CCCCCCN1C(=O)/C(=N\NC(=O)c2ccccc2)c2cc(C)ccc21 [Example 31, N′-[(3Z)-1-hexyl-5-methyl-2-oxo-1,2-dihydro-3H-indol-3-ylidene]benzohydrazide] |  |  |  |  |  |  |  |  | 22 ± 0.9 | 1 ± 2.7 | 
CCCCCCN1C(=O)/C(=N\NC(=O)c2ccccc2)c2cc(OC)ccc21 [Example 32, N′-[(3Z)-1-hexyl-5-methoxy-2-oxo-1,2-dihydro-3H-indol-3-ylidene]benzohydrazide] |  |  |  |  |  |  |  |  | 26 ± 3.1 | 17 ± 1.2 | 
CCCCCCN1C(=O)/C(=N\NC(=O)c2ccccc2)c2cc(Cl)ccc21 [Example 34, N′-[(3Z)-5-chloro-1-hexyl-2-oxo-1,2-dihydro-3H-indol-3-ylidene]benzohydrazide] |  |  |  |  |  |  |  |  | 9 ± 1.4 | 6 ± 1.4 | 
CCCCCN1C(=O)/C(=N\NC(=O)c2ccccc2)c2cc(I)ccc21 [Example 35, N′-[(3Z)-5-iodo-2-oxo-1-pentyl-1,2-dihydro-3H-indol-3-ylidene]benzohydrazide] |  |  |  |  |  |  |  |  | 25 ± 0.2 | 10 ± 0.2 | 
CCCCCCN1C(=O)/C(=N\NC(=O)c2ccccc2)c2ccc(OC)cc21 [Example 36, N′-[(3Z)-1-hexyl-6-methoxy-2-oxo-1,2-dihydro-3H-indol-3-ylidene]benzohydrazide] |  |  |  |  |  |  |  |  |  |  | EC50 (hCB2 receptor): 85 nM; Emax (hCB2 receptor; Table 10, repeated experiment): -95%
COc1ccc2c(c1)N(Cc1ccccc1)C(=O)/C2=N\NC(=O)c1ccccc1 [Example 38, N′-[(3Z)-1-benzyl-6-methoxy-2-oxo-1,2-dihydro-3H-indol-3-ylidene]benzohydrazide] |  |  |  |  |  |  |  |  |  |  | Emax (hCB2 receptor; Table 10, repeated experiment): -96%; EC50 (hCB2 receptor; Table 10, repeated experiment, read-out: [35S]GTP-γ-S hCB2 EC50): 102 nM
